Results published in patent US10676478B2, “7-(thiazol-5-yl) pyrrolopyrimidine compound as TLR7 agonist” (CHIA TAI TIANQING PHARMACEUTICAL GROUP CO., LTD., priority 2015, dated 2020).
Where two headings read alike, the source gives them in different places.

Experiments:
[1] = molecular target: T1, Toll-like receptor 7 (HEK-blue hTLR7 cell) (Homo sapiens, UniProt Q9NYK1); assay: Toll-like receptor 7 in vitro receptor binding activity (HEK-blue hTLR7 cell, Quanti-Blue alkaline phosphatase reporter); format: cell-based; conditions: 24 h incubation, read-out: TLR7 EC50
T1 construct: host or cells: HEK-blue hTLR7 cell (HEK293-derived reporter line)
T1 sequence (Q9NYK1 27-1049): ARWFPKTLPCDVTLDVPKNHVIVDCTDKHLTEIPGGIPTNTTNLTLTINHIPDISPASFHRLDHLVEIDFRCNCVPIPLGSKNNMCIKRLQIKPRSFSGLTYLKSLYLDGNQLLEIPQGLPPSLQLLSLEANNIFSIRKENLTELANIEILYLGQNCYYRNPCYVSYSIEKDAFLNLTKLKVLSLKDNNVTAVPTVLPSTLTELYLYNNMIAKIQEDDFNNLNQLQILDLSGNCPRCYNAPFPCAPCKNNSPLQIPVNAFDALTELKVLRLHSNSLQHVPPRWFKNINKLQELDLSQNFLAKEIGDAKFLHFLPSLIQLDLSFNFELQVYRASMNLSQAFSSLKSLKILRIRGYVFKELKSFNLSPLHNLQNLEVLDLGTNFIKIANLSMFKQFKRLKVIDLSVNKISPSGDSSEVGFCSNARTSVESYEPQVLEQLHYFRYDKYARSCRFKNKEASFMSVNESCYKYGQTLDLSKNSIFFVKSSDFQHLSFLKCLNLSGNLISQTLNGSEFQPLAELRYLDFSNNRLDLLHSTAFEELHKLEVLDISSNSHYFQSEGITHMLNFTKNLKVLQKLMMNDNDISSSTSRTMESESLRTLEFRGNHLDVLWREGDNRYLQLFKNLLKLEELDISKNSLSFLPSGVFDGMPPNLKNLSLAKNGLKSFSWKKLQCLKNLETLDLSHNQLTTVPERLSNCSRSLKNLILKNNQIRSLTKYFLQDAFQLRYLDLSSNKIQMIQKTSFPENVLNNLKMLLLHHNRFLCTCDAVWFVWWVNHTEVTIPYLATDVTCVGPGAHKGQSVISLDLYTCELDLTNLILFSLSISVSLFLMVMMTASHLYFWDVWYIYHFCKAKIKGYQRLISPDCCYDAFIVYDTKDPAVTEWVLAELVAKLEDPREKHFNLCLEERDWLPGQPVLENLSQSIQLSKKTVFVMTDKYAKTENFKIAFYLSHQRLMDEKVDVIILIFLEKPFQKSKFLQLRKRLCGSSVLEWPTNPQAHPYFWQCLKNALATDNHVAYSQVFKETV
Description: (§1) Experimental Example 1: Toll-Like Receptor 7 and Toll-Like Receptor 8 In Vitro Receptor Binding Activity
(§2) HEK-blue hTLR7 cell and HEK-blue hTLR8 cell (available from InvivoGen)
(§3) The GS-9620 and R848 used have the following structures. GS-9620 can be prepared according the process disclosed in US20100143301; R848 is purchased from ABGENT (Catalog: IMG-2208, 0.5 mg).
(§4) The compounds were gradient diluted with DMSO in 3-fold using liquid work station POD starting at a concentration of 10 mmol/L and 10 points were diluted (2nd column to 11th column, and each point was duplicated). At 12th column, 1 μL of 5 mg/mL positive compound R848 was added as positive control; and at 1 st column, 1 μL of DMSO was added as negative control. Each well contained 1 μL of DMSO.
(§5) 2. The cells in cell culture flask were collected and the cell density was diluted to 250,000 cells/mL.
(§6) 3. 200 μL (50,000 cells/well) of cell suspension was added into prepared compound plate and the final concentration of DMSO in each well was 0.5%.
(§7) 4. The culture plates containing cells and the compounds were incubated in CO2 incubator for 24 h at 37° C., 5% CO2.
(§8) 5. After 24 h incubation, 20 μL of supernatant was removed from each well of the cell culture plates to a 96-well transparent assay plate. […]
(§9) 6. After 1 h, the content of alkaline phosphatase in 20 μL of supernatant was determined using Microplate Reader at OD650. […]

[2] = molecular target: T2, Toll-like receptor 8 (HEK-blue hTLR8 cell) (Homo sapiens, UniProt Q9NR97); assay: Toll-like receptor 8 in vitro receptor binding activity (HEK-blue hTLR8 cell, Quanti-Blue alkaline phosphatase reporter); format: cell-based; conditions: 24 h incubation, read-out: TLR8 EC50
T2 construct: host or cells: HEK-blue hTLR8 cell (HEK293-derived reporter line)
T2 sequence (Q9NR97 27-1041): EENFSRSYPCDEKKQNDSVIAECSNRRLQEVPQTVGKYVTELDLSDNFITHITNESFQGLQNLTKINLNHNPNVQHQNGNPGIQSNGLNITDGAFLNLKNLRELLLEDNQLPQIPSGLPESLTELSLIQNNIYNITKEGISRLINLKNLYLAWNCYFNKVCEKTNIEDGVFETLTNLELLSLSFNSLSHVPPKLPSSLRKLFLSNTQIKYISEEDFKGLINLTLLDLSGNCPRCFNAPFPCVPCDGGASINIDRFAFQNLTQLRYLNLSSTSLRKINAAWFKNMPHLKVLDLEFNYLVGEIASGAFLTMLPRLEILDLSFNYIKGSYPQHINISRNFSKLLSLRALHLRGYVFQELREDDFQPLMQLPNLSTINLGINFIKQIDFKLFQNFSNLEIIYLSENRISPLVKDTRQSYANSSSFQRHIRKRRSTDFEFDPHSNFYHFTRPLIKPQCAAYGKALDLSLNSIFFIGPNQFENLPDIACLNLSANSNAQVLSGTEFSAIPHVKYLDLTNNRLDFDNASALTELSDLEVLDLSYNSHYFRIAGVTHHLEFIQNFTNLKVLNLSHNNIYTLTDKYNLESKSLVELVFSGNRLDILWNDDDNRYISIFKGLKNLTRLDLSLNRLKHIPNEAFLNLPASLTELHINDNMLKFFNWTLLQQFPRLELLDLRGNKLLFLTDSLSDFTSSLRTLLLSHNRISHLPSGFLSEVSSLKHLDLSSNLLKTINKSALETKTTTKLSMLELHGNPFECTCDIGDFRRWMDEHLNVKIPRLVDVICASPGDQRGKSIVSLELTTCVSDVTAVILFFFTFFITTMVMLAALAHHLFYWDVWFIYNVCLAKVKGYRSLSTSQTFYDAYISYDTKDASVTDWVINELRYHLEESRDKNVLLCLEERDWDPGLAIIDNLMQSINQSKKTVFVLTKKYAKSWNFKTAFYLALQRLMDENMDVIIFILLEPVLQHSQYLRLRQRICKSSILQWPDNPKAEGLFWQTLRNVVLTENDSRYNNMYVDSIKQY
Description: as §1, §2, §3, §4, §5, §6, §7, §8, §9

[3] = Pharmacokinetics assay in rat; format: in vivo, SD rats; parameters: Mean plasma drug concentration: unit not given here; conditions: for Cmax: read-out: C0 or Cmax; for half-life: read-out: T½ (converted)
Description: Experimental Example 2: Pharmacokinetics Assay in Rat
12 male SD rats were divided into 4 groups with 3 SD rats in each group. 2 groups of animals were administered by intravenous injection (IV) 1 mg/kg of the control Toll-like receptor 7 agonist GS-9620 and Example 1 compound as 10% hydroxypropyl-β-cyclodextrin aqueous solution (concentration is 0.5 mg/mL), respectively. The other 2 groups were administered orally (PO) 5 mg/kg of GS-9620 and 3 mg/kg of Example 1 compound as 0.5% methylcellulose/0.2% Tween 80 pure water suspension (concentration is 1 mg/mL). […] Each rat with oral administration was collected for whole blood samples which were prepared into plasma 15, 30 min and 1, 2, 4, 8, 24 h continuously after administration. The plasma concentrations of GS-9620 and Example 1 compound were determined with LC-MS/MS.

[4] = male, SD, plasma, 1 mg/kg, IV 1 mpk
[5] = male, SD, plasma, 3 mg/kg, PO 3 mpk

## CCCCOc1nc(N)c2[nH]cc(Cc3cnc(CN4CCCC4)s3)c2n1 [Example 1, 2-butoxy-7-((2-(pyrrolidin-1-ylmethyl)thiazol-5-yl)methyl)-5H-pyrrolo[3,2-d]pyrimidin-4-amine]
[1]
  EC50: 0.454 µM
[2]
  EC50: 29.3 µM
[3]; IV 1 mpk, time 0.083 h
  Mean plasma drug concentration: 500
[3]; IV 1 mpk, time 0.25 h
  Mean plasma drug concentration: 277
[3]; IV 1 mpk, time 0.5 h
  Mean plasma drug concentration: 197
[3]; IV 1 mpk, time 1 h
  Mean plasma drug concentration: 120
[3]; IV 1 mpk, time 2 h
  Mean plasma drug concentration: 66.1
[3]; IV 1 mpk, time 4 h
  Mean plasma drug concentration: 30.6
[3]; IV 1 mpk, time 8 h
  Mean plasma drug concentration: 13.1
[3]; PO 3 mpk, time 0.25 h
  Mean plasma drug concentration: 45.4
[3]; PO 3 mpk, time 0.5 h
  Mean plasma drug concentration: 52.0
[3]; PO 3 mpk, time 1 h
  Mean plasma drug concentration: 86.8
[3]; PO 3 mpk, time 2 h
  Mean plasma drug concentration: 113
[3]; PO 3 mpk, time 4 h
  Mean plasma drug concentration: 23.6
[3]; PO 3 mpk, time 8 h
  Mean plasma drug concentration: 5.64
[3]; [4]
  AUC(0-inf): 0.573 µM·h
  AUC(0-t): 0.541 µM·h
  clearance: 75.8 mL/min/kg
  Cmax: 673 nM
  half-life: 3.08 h
[3]; male, SD, plasma, 1 mg/kg, IV 1 mpk, read-out: Vdss
  Vd: 13.5 L/kg
[3]; [5]
  AUC(0-inf): 0.325 µM·h
  AUC(0-t): 0.313 µM·h
  Cmax: 148 nM
  half-life: 1.54 h

## CCCCOc1nc(N)c2c(n1)N(Cc1cccc(CN3CCCC3)c1)CC(=O)N2 [GS-9620, reference compound]
[3]; IV 1 mpk, time 0.083 h
  Mean plasma drug concentration: 170
[3]; IV 1 mpk, time 0.25 h
  Mean plasma drug concentration: 102
[3]; IV 1 mpk, time 0.5 h
  Mean plasma drug concentration: 65.4
[3]; IV 1 mpk, time 1 h
  Mean plasma drug concentration: 48.1
[3]; IV 1 mpk, time 2 h
  Mean plasma drug concentration: 21.6
[3]; IV 1 mpk, time 4 h
  Mean plasma drug concentration: 13
[3]; IV 1 mpk, time 8 h
  Mean plasma drug concentration: 4.17
[3]; PO 5 mpk, time 0.25 h
  Mean plasma drug concentration: 56.3
[3]; PO 5 mpk, time 0.5 h
  Mean plasma drug concentration: 33.2
[3]; PO 5 mpk, time 1 h
  Mean plasma drug concentration: 83.4
[3]; PO 5 mpk, time 2 h
  Mean plasma drug concentration: 136
[3]; PO 5 mpk, time 4 h
  Mean plasma drug concentration: 16.7
[3]; PO 5 mpk, time 8 h
  Mean plasma drug concentration: 9.49
